Experimental data published in PubChem BioAssay AID977621 (Broad Institute, 2014).
Records with an inconclusive call do not appear. The source made the active and inactive calls.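 Rule for the calls: active = Wild-type ribosome reporter drop at least double the humanized mutant ribosome reporter drop, growth loss under a set limit; inconclusive = no clear call, values can overlap the other calls; inactive = the rest.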

Tested on: E. coli wild-type GFP strain growth, fluorescence, 24 h
Experiment: wild-type E. coli growth inhibition versus H69 humanized strain – H69 mutant RFP, wild-type GFP, cherry-pick, dose response (AID 977621);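 note: wild-type GFP and H69 mutant RFP strains grown together 50/50 in each well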
[1] = E. coli mixed culture, 24 h, measured here: total growth OD600, test 2

Row | Structure (SMILES) | AC50 | AC50 [1] [µM] | AC50 (E. coli mixed culture, 24 h, measured here: total growth OD600, test 1) [µM]
1 | O=C(NCCc1ccc(Cl)cc1)c1ccc2nc[nH]c2c1 | > 100 µM (inactive) | – | –
2 | Cc1n[nH]c(C)c1S(=O)(=O)N1CCCC(C(=O)Nc2ccc(Br)cc2)C1 (stereo not drawn) | > 100 µM (inactive) | – | –
3 | COCCNc1cc(-c2ccccc2)nc2cc(-c3cccc(F)c3)nn12 | > 100 µM (inactive) | – | –
4 | O=C(O)c1cc(-c2ccc(Cl)s2)nc2ccccc12 | – | > 100 | –
5 | O=C(N[C@@H](Cc1ccccc1)C(=O)OCc1ccccc1)c1nc[nH]c1C(=O)NC1CCNCC1 | > 100 µM (inactive) | – | –
6 | COc1cc(C2CC(=O)Oc3cc(C)cc(C)c32)cc(OC)c1OC (stereo not drawn) | > 100 µM (inactive) | – | –
7 | COc1ccccc1-c1cc2nc(NCCc3ccncc3)ccn2n1 | > 100 µM (inactive) | – | –
8 | Cc1cc(Br)ccc1SCC(=O)OCC(=O)NCc1ccco1 | > 100 µM (inactive) | – | –
9 | CN(Cc1ccc(Cl)s1)C(=O)CNC(=O)CNC(=O)c1ccc(Cl)cc1Cl | > 100 µM (inactive) | – | –
10 | COc1cc(NC(=O)CSCc2ccc(Cl)cc2Cl)c(C(=O)O)cc1OC | > 100 µM (inactive) | > 100 | –
11 | CCc1cc2c(NC(Cc3c[nH]c4ccccc34)C(=O)O)nc(C)nc2s1 (stereo not drawn) | > 100 µM (inactive) | – | –
12 | COc1cc(CO)cc(Br)c1OCC(=O)Nc1cccc2ccccc12 | > 100 µM (inactive) | – | –
13 | CCOC(=O)c1cc(-c2ccc(OC)cc2)n[nH]1 | – | > 100 | –
14 | CCc1ccc(CN2CCCC(CNS(=O)(=O)c3ccc(OC)cc3)C2)cc1 (stereo not drawn) | – | > 100 | –
15 | CCN(CC(=O)Nc1cccc(S(=O)(=O)N2CCCC2)c1)CC(=O)Nc1ccccc1OC | – | > 100 | –
16 | Cc1[nH]nc2c1C(c1ccc(F)cc1)N(Cc1ccccc1)C2=O (stereo not drawn) | > 100 µM (inactive) | – | –
17 | COc1ccc(C)c2sc(N(CCN(C)C)C(=O)c3ccc(S(=O)(=O)N(C)c4ccccc4)cc3)nc12 | > 100 µM (inactive) | – | –
18 | COc1ccccc1N(C1=NCCCS1)S(=O)(=O)c1ccc(C(C)(C)C)cc1 | > 100 µM (inactive) | – | –
19 | Cc1onc(-c2c(F)cccc2Cl)c1C(=O)c1ccccc1O | – | 42.4 | –
20 | CN(C)CCCn1c(=O)n(Cc2ccco2)c(=O)c2c3c(sc21)CCCCC3 | – | > 100 | –
21 | NC(=O)c1ccsc1NC(=O)COC(=O)CSc1ccc(Cl)cc1 | > 100 µM (inactive) | > 100 | –
22 | Cc1cc(NC(=O)COC(=O)CSCc2ccc(Cl)c(Cl)c2)no1 | > 100 µM (inactive) | > 100 | –
23 | CCCCc1cc2c(cc1NC(=O)CN1CCCCC1)OCCO2 | > 100 µM (inactive) | > 100 | –

Row | Structure (SMILES) | AC50 | AC50 [1] [µM] | AC50 (E. coli mixed culture, 24 h, measured here: total growth OD600, test 1) [µM]
24 | O=C(COC(=O)C1CC2C=CC1C2)NCCc1ccccc1 (stereo not drawn) | – | > 100 | –
25 | COc1ccc(-c2nnn(CC(=O)N3CCN(c4ccccc4OC)CC3)n2)cc1OC | > 100 µM (inactive) | – | –
26 | COc1cccc(C(=O)NC(C)c2ccc(Br)cc2)c1 (stereo not drawn) | – | > 100 | –
27 | Cc1cc(C)c(OCCNC(=O)c2ccccc2Sc2ccccc2C#N)c(C)c1 | > 100 µM (inactive) | – | 5.7
28 | O=C(O)c1ccc(COc2ccc3ccccc3c2)o1 | > 100 µM (inactive) | > 100 | –
29 | CCCn1c(C(C)Nc2nc(-c3ccc(C)cc3)cs2)nc2ccccc21 (stereo not drawn) | – | > 100 | –
30 | O=C(CSc1n[nH]c(=O)n1C1CC1)Nc1ccc(Cl)c(Cl)c1 | > 100 µM (inactive) | – | –
31 | COc1cc(-c2cc3nc(NCCc4ccncc4)ccn3n2)cc(OC)c1OC | > 100 µM (inactive) | – | –
32 | Cc1cc(C(C)(C)C)oc1C(=O)N(CC(=O)NC1CCCC1)c1c(C)cccc1C | > 100 µM (inactive) | > 100 | –
33 | O=C1CCCN1CCCNc1ncnc2c1[nH]c1ccc(Cl)cc12 | – | 40.5 | –
34 | Cc1ccc(NC(=O)c2ccc([N+](=O)[O-])o2)c(C)c1 | > 100 µM (inactive) | – | –
35 | Cc1ccc(NS(=O)(=O)c2cc(C(=O)N3CCc4ccccc4C3)ccc2Cl)cc1 | – | 33.3 | –
36 | CCN(CC)CCN(C(=O)c1ccc2c(c1)OCCO2)c1nc2cc(C)cc(C)c2s1 | > 100 µM (inactive) | – | –
37 | CC(C)Sc1sc(C(=O)O)c(-c2ccc(Cl)cc2)c1C#N | – | 32.7 | –
38 | COc1ccc(CCCc2nc3ccccc3[nH]2)cc1 | – | > 100 | –
39 | O=C(Nc1ccc(F)c(Cl)c1)C1CC2CCC1C2 (stereo not drawn) | – | > 100 | –
40 | O=C(Nc1ccc(S(=O)(=O)N2CCCC2)cc1)c1ccc(OCC2CCCO2)cc1 (stereo not drawn) | > 100 µM (inactive) | – | –
41 | O=C(C[C@H]1CC[C@@H]2[C@H](COC[C@@H](O)CN2C(=O)Nc2cc(Cl)cc(Cl)c2)O1)N1CCOCC1 | > 100 µM (inactive) | – | –
42 | COc1ccc(OCCC(=O)OCC(=O)NCCC2=CCCCC2)cc1 | – | > 100 | –
43 | O=C(Nc1ccc(Cl)cn1)c1ccc([N+](=O)[O-])o1 | – | > 100 | –
44 | CCOC(=O)C1CCCN(C(=O)c2csc(-c3ccc4c(c3)CCO4)n2)C1 (stereo not drawn) | > 100 µM (inactive) | – | –
45 | Cc1ccccc1-n1ncc2c(SCC(=O)N3c4ccccc4CC3C)ncnc21 (stereo not drawn) | > 100 µM (inactive) | – | –
46 | COCc1cc(C)nc(SCC[N+](C)(C)CC(=O)c2ccc(Br)cc2)c1C#N | > 100 µM (inactive) | – | –

Row | Structure (SMILES) | AC50 | AC50 [1] [µM] | AC50 (E. coli mixed culture, 24 h, measured here: total growth OD600, test 1) [µM]
47 | CSC1=NCCN1C(=O)Cc1ccc(-c2ccccc2)cc1 | > 100 µM (inactive) | 48.3 | –
48 | COC(=O)c1ccccc1OCCOCCOc1cccc2ccc(C)nc12 | > 100 µM (inactive) | – | –
49 | COc1ccc(NC(=O)Nc2cccc3c2O[C@@H](CN(C)S(=O)(=O)c2ccc(Cl)cc2)[C@H](C)CN([C@H](C)CO)C3=O)cc1 | > 100 µM (inactive) | – | –
50 | CN(CCOc1ccccc1)C(=O)c1ccc(OC2CCN(C(=O)C3CC3)CC2)cc1 | > 100 µM (inactive) | – | –
51 | C=CCn1c(-c2cc3cccc(OC)c3o2)n[nH]c1=S | > 100 µM (inactive) | – | –
52 | Cc1ccc(NC(=O)c2c(C)noc2-c2snnc2C)cc1 | > 100 µM (inactive) | – | –
53 | CCN(C(=O)COC(=O)c1cc(-c2cccs2)nc2ccccc12)C1CCS(=O)(=O)C1 (stereo not drawn) | > 100 µM (inactive) | – | –
54 | O=C(CN1CCCC1)Nc1ccccc1Sc1ccc(Cl)cc1 | > 100 µM (inactive) | 29.9 | –
55 | Fc1ccc(-n2cc(CNCCc3cccnc3)c(-c3ccccc3Cl)n2)cc1 | > 100 µM (inactive) | 27.8 | –
56 | CCc1ccc(NC(=O)COC(=O)CCCC2=NS(=O)(=O)c3ccccc3N2)cc1 | > 100 µM (inactive) | – | –
57 | CCOc1ccc(CCNC(=O)CCn2ccc3cc(S(=O)(=O)N4CCCC4)ccc32)cc1 | > 100 µM (inactive) | 41.4 | –
58 | Cc1nc2ncnn2c(N2CCC(C(=O)NC3CCCC3)CC2)c1Cc1ccccc1 | – | > 100 | –
59 | CCn1nc(Cc2cccc3ccccc23)c(C#N)c1N | > 100 µM (inactive) | – | –
60 | O=C(CC(c1ccccc1)c1cc(Br)ccc1O)N1CCCC1 (stereo not drawn) | > 100 µM (inactive) | 36.4 | –
61 | COc1ccc(OC)c(-c2nnc3n2N=C(c2ccc(OC)c(OC4CCOC4)c2)CS3)c1 (stereo not drawn) | > 100 µM (inactive) | > 100 | –
62 | Cc1ccc(C(=O)OCC(=O)c2c[nH]c3ccccc23)cc1NC(=O)c1ccco1 | > 100 µM (inactive) | – | –
63 | CCOc1ccc(OCC)c(NC(=O)CSc2nc3cccnc3n2C)c1 | > 100 µM (inactive) | 36.6 | –
64 | COc1cccc(OC)c1CNC(=O)CCSCc1ccccc1F | – | > 100 | –
65 | CCCCNC(=O)c1onc(CSc2cc(C)cc(C)c2)c1C(=O)O | – | 34.2 | –
66 | CCc1cc(C(=O)N2CCCC(C(=O)c3cccc4ccccc34)C2)n(C)n1 (stereo not drawn) | – | > 100 | –
67 | O=C(c1ccc(Cl)cc1)N1CCN(c2cccc3[nH]ccc23)CC1 | > 100 µM (inactive) | – | –
68 | C=C1SC(Nc2c(C)cc(C)cc2C)=NC12CCCCC2 | > 100 µM (inactive) | 31.9 | –
